From the supplement of paper PMC10307832

Key:
Test in all cases: relative viability (nuclei count vs DMSO), 5 days (fraction); higher = more cells survive
[1] = compound: C1CC(C1)(C(=O)O)C(=O)O.[NH2-].[NH2-].[Pt+2] [Carboplatin] + Cc1nc(Nc2ncc(C(=O)Nc3c(C)cccc3Cl)s2)cc(N2CCN(CCO)CC2)n1 [Dasatinib] (partner 0.075 µM)
How it was run: (§1)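 Each reported value is a median over duplicate plates. It expresses relative viability: treated-well nuclei count divided by vehicle-well nuclei count. Lung cancer cell lines in 1536-well plates were dosed by pin tool a day after seeding, alone with one drug or with a fixed anchor-drug dose plus five library-drug doses (not always all listed) in √10 steps, and nuclei were counted after 5 days.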

[2] = compound: CC[C@H](C)N1C=C(C2=C(C=C(C=C21)C3=CN=C(C=C3)N4CCNCC4)C(=O)NCC5=C(C=C(NC5=O)C)C)C [GSK126] + Cc1nc(Nc2ncc(C(=O)Nc3c(C)cccc3Cl)s2)cc(N2CCN(CCO)CC2)n1 [Dasatinib] (partner 0.075 µM)
How it was run: as §1

[3] = compound: NS(=O)(=O)OC[C@@H]1C[C@@H](n2ccc3c(N[C@H]4CCc5ccccc54)ncnc32)C[C@@H]1O [MLN4924] + CS(=O)(=O)CCNCc1ccc(-c2ccc3ncnc(Nc4ccc(OCc5cccc(F)c5)c(Cl)c4)c3c2)o1 [Lapatinib] (partner 2 µM)
How it was run: as §1

[4] = compound: NS(=O)(=O)OC[C@@H]1C[C@@H](n2ccc3c(N[C@H]4CCc5ccccc54)ncnc32)C[C@@H]1O [MLN4924] + N=C(N)NC(=N)NCCc1ccccc1 [Phenformin] (partner 250 µM)
How it was run: as §1

Cell Line	relative viability ([1]; first compound 0.08 µM)	relative viability ([1]; first compound 0.253 µM)	relative viability ([1]; first compound 0.8 µM)	relative viability ([1]; first compound 2.53 µM)	relative viability ([1]; first compound 8 µM)	relative viability ([2]; first compound 0.08 µM)	relative viability ([2]; first compound 0.253 µM)	relative viability ([2]; first compound 0.8 µM)	relative viability ([2]; first compound 2.53 µM)	relative viability ([2]; first compound 8 µM)	relative viability ([3]; first compound 0.04 µM)	relative viability ([3]; first compound 0.1265 µM)	relative viability ([3]; first compound 0.4 µM)	relative viability ([3]; first compound 1.265 µM)	relative viability ([3]; first compound 4 µM)	relative viability ([4]; first compound 0.04 µM)	relative viability ([4]; first compound 0.1265 µM)	relative viability ([4]; first compound 0.4 µM)	relative viability ([4]; first compound 1.265 µM)	relative viability ([4]; first compound 4 µM)
RERF-LC-KJ	0.892	0.767	0.747	0.706	0.517	0.883	0.886	0.756	0.717	0.703	0.746	0.555	0.227	0.191	0.221	0.397	0.351	0.204	0.255	0.249
NCI-H1734	0.471	0.449	0.454	0.463	0.443	0.573	0.505	0.463	0.467	0.449	1.02	0.925	0.19	0.118	0.134	0.339	0.44	0.229	0.118	0.122
NCI-H1651	0.436	0.397	0.344	0.435	0.216	0.534	0.427	0.363	0.443	0.45	0.911	0.776	0.281	0.138	0.116	0.347	0.317	0.313	0.171	0.157
PC-14	0.288	0.292	0.261	0.131	0.068	0.261	0.236	0.231	0.255	0.222	0.382	0.655	0.395	0.157	0.136	0.473	0.564	0.37	0.151	0.127
NCI-H358	0.162	0.171	0.163	0.178	0.18	0.202	0.167	0.173	0.15	0.175	0.585	0.654	0.345	0.25	0.236	0.354	0.366	0.171	0.0905	0.0916
NCI-H1915	0.288	0.304	0.315	0.305	0.255	0.3	0.3	0.34	0.347	0.328	0.88	0.962	0.649	0.166	0.156	0.347	0.33	0.291	0.179	0.211
NCI-H1975	0.433	0.374	0.358	0.366	0.375	0.389	0.366	0.375	0.355	0.291	1.13	1.02	0.308	0.152	0.169	0.418	0.479	0.494	0.328	0.184
BEN	0.339	0.296	0.284	0.319	0.228	0.3	0.31	0.295	0.309	0.325	0.671	0.522	0.249	0.145	0.104	0.214	0.185	0.218	0.183	0.145
NCI-H1563	0.496	0.464	0.439	0.399	0.445	0.438	0.455	0.461	0.459	0.441	1.38	0.759	0.627	0.485	0.61	0.832	0.87	0.666	0.498	0.57
EPLC-272H	0.455	0.342	0.326	0.365	0.399	0.456	0.375	0.321	0.404	0.327	0.848	0.805	0.106	0.119	0.165	0.343	0.325	0.0478	0.103	0.126
NCI-H2228	0.667	0.482	0.425	0.444	0.326	0.597	0.513	0.522	0.562	0.493		0.638	0.271	0.13	0.161	0.327	0.38	0.194	0.134	0.146
NCI-H661	1.06	0.923	0.844	0.82	0.746	1.11	0.745	0.755	0.664	0.653	0.538	0.632	0.499	0.228	0.28	0.289	0.329	0.294	0.286	0.234
LU99A	0.562	0.559	0.511	0.39	0.384	0.648	0.467	0.718	0.526	0.568	0.779	0.339	0.294	0.145	0.151	0.477	0.622	0.437	0.196	0.213
NCI-H2405	0.234	0.206	0.214	0.191	0.215	0.203	0.207	0.188	0.19	0.189	1.26	1.05	0.511	0.192	0.195	0.403	0.446	0.362	0.284	0.306
NCI-H2009	0.321	0.286	0.29	0.291	0.249	0.331	0.261	0.306	0.231	0.296	0.437	0.261	0.237	0.087	0.111	0.24	0.184	0.156	0.0904	0.0791
HOP-62	0.711	0.711	0.645	0.728	0.575	0.829	0.583	0.636	0.566	0.595	0.843	0.798	0.205	0.114	0.0815	0.393	0.335	0.134	0.0578	0.0991
NCI-H727	0.472	0.356	0.374	0.364	0.376	0.353	0.36	0.39	0.416	0.348	0.692	0.704	0.352	0.24	0.192	0.827	0.438	0.278	0.292	0.33
COR-L 105	0.364	0.351	0.37	0.293	0.297	0.356	0.331	0.342	0.288	0.398	0.355	0.335	0.337	0.282	0.281	0.567	0.366	0.325	0.244	0.301
PC-3 [JPC-3]	1	1.09	0.985	0.95	0.864	1.12	0.997	0.997	1.02	0.978	0.478	0.51	0.277	0.261	0.262	0.482	0.482	0.404	0.323	0.341
NCI-H2347	0.325	0.26	0.346	0.322	0.273	0.257	0.331	0.347	0.305	0.304	0.746	0.897	0.487	0.338	0.412	0.376	0.453	0.381	0.21	0.302
SW 1573	0.58	0.495	0.474	0.507	0.329	0.709	0.659	0.515	0.479	0.524	0.781	1.1	0.565	0.13	0.114	0.325	0.297	0.144	0.086	0.0734
NCI-H838	0.306	0.3	0.331	0.319	0.275	0.344	0.308	0.313	0.266	0.209	0.754	0.273	0.257	0.126	0.148	0.538	0.319	0.263	0.127	0.128
HCC-78	0.576	0.425	0.372	0.416	0.489	0.423	0.51	0.357	0.355	0.367	0.871	0.515	0.683	0.142	0.215	0.694	0.634	0.888	0.219	0.203
A-427	0.728	0.772	0.716	0.704	0.657	0.76	0.638	0.634	0.799	0.635	0.589	0.608	0.268	0.196	0.169	0.193	0.165	0.171	0.146	0.151
CAL-12T	0.375	0.502	0.419	0.521	0.372	0.582	0.515	0.531	0.512	0.45		0.603	0.354	0.198	0.243	0.511	0.511	0.292	0.214	0.129
SK-MES-1	0.574	0.354	0.344	0.379	0.363	0.446	0.47	0.307	0.305	0.373	0.534	0.722	0.486	0.281	0.212	0.555	0.444	0.309	0.202	0.2
NCI-H460	0.551	0.429	0.464	0.427	0.183	0.562	0.483	0.455	0.421	0.569	0.657	0.0947	0.0407	0.016	0.0144	0.548	0.448	0.496	0.0336	0.0252
